US9393187B2, “Peptide compounds that inhibit neuronal exocytosis” (LUBRIZOL ADVANCED MATERIALS, INC., priority 2012, dated 2016)

Tested on: human neuroblastoma cell line
Assay: Release of noradrenaline induced by TPA/Ionomycin in a neuroblastoma cell line, quantified by ELISA
Type: cell-based
Conditions: TPA/ION control = 100
Protocol: Quantification of the Release of Noradrenaline Induced by TPA/Ionomycin in a Neuroblastoma Cell Line by ELISA
The induction of the release of noradrenaline with TPA (12-O-tetradecanoylphorbol-13-acetate)/lonomycin enables direct measurement of neuronal exocytosis. For the study of the inhibitory effect of the compounds of the invention on the release of noradrenaline, cells of a human neuroblastoma cell line were pre-incubated (1×10^6 cells/well) for 60 minutes with the compound of the invention (1 μM, 10 μM, 100 μM, 500 μM or 1 mM compounds), and afterwards the release of noradrenaline was induced. The release of the noradrenaline neurotransmitter was induced by an 8 minute pre-treatment with a solution of 12-O-tetradecanoylphorbol-13-acetate (TPA) 100 nM, which mobilized the intracellular vesicles which contained the neuro-transmitter; followed by a 5 minute incubation with TPA/Ionomycin (100 nM/10 μM), which induced the release of the neurotransmitter contained in these vesicles. […] For this, absorbance at 405 nm was measured in Thermo Scientific Multiskan Ascent equipment.
The blocking of the SNARE complex by the compounds of the invention lead to an inhibition of neuronal exocytosis and therefore, a decrease in the levels of released noradrenaline (Table 6).

Row | Substance | % RELEASED NORADRENALINE Average (dose 10 μM) [%] | % RELEASED NORADRENALINE Average (dose 100 μM) [%] | % RELEASED NORADRENALINE Average (dose 1000 μM) [%] | % RELEASED NORADRENALINE Average (dose 1 μM) [%] | % RELEASED NORADRENALINE Average (dose 500 μM) [%]
1 | Ac-RDFDQW-NH2 [Ac-SEQ ID NO:31-NH2] | 83.33 | 69.07 | 31.72 |  | 
2 | Ac-NDIAQM-NH2 [Ac-SEQ ID NO:30-NH2] | 94.48 | 74.79 | 41.05 | 99.59 | 48.07
